# Assay results from patent US20250249056A1, “CANCER THERAPIES COMPRISING A NUCLEAR EXPORT INHIBITOR AND AN ONCOLYTIC VIRUS” (priority 2022, published 2025).
# System: Colo205 cells
# Format: cell-based, human
# Settings: selinexor-treated cytoplasm vs control cytoplasm
structure (smiles),measurement,setting,value
O=C(/C=C\n1cnc(-c2cc(C(F)(F)F)cc(C(F)(F)F)c2)n1)NNc1cnccn1 [selinexor],"Differential protein expression, PLEKHS1",Q5SXH7,2.039
same,"Differential protein expression, RSBN1",Q5VWQ0,100
same,"Differential protein expression, ZMYM4",Q5VZL5,0.01
same,"Differential protein expression, RPL7L1",Q6DKI1,0.463
same,"Differential protein expression, DMKN",Q6E0U4,0.02
same,"Differential protein expression, NCAPH2",Q6IBW4,0.01
same,"Differential protein expression, LIN54",Q6MZP7,0.426
same,"Differential protein expression, POMZP3",Q6PJE2,100
same,"Differential protein expression, CCDC137",Q6PK04,0.426
same,"Differential protein expression, MPRIP",Q6WCQ1,0.01
same,"Differential protein expression, NCCRP1",Q6ZVX7,2.342
same,"Differential protein expression, LPCAT2",Q7L5N7,2.194
same,"Differential protein expression, CXXC5",Q7LFL8,0.01
same,"Differential protein expression, KRT74",Q7RTS7,4.935
same,"Differential protein expression, KRT28",Q7Z3Y7,2.439
same,"Differential protein expression, KRT27",Q7Z3Y8,2.607
same,"Differential protein expression, KRT25",Q7Z3Z0,2.607
same,"Differential protein expression, MYH14",Q7Z406,2.01
same,"Differential protein expression, KRT78",Q8N1N4,2.84
same,"Differential protein expression, PIAS4",Q8N2W9,0.01
same,"Differential protein expression, GPATCH11",Q8N954,100
same,"Differential protein expression, KDM1B",Q8NB78,0.01
same,"Differential protein expression, RNF169",Q8NCN4,100
same,"Differential protein expression, PHC3",Q8NDX5,100
same,"Differential protein expression, PPHLN1",Q8NEY8,0.01
same,"Differential protein expression, GDAP1",Q8TB36,2.559
same,"Differential protein expression, CIP2A",Q8TCG1,0.239
same,"Differential protein expression, CHD6",Q8TD26,0.01
same,"Differential protein expression, GPT2",Q8TD30,0.411
same,"Differential protein expression, RB1CC1",Q8TDY2,100
same,"Differential protein expression, ZNF384",Q8TF68,0.01
same,"Differential protein expression, U2AF1L4",Q8WU68,2.738
same,"Differential protein expression, TSEN15",Q8WW01,0.497
same,"Differential protein expression, NIPSNAP1",Q9BPW8,0.499
same,"Differential protein expression, SH2D3A",Q9BRG2,100
same,"Differential protein expression, WDR83",Q9BRX9,100
same,"Differential protein expression, TPPP3",Q9BW30,2.408
same,"Differential protein expression, LSM14B",Q9BX40,0.437
same,"Differential protein expression, TTYH3",Q9C0H2,0.47
same,"Differential protein expression, BRD8",Q9H0E9,0.01
same,"Differential protein expression, WWP1",Q9H0M0,2.549
same,"Differential protein expression, TASP1",Q9H6P5,100
same,"Differential protein expression, RPF2",Q9H7B2,2.588
same,"Differential protein expression, CAAP1",Q9H8G2,100
same,"Differential protein expression, BRD9",Q9H8M2,0.01
same,"Differential protein expression, ING2",Q9H160,100
same,"Differential protein expression, SDCBP2",Q9H190,2.885
same,"Differential protein expression, EPB41L4B",Q9H329,2.055
same,"Differential protein expression, FOXP1",Q9H334,0.01
same,"Differential protein expression, SP110",Q9HB58,0.01
same,"Differential protein expression, PATZ1",Q9HBE1,100
same,"Differential protein expression, SPC25",Q9HBM1,0.479
same,"Differential protein expression, AGO4",Q9HCK5,2.165
same,"Differential protein expression, TCF7L1",Q9HCS4,5.627
same,"Differential protein expression, MLXIPL",Q9NP71,0.379
same,"Differential protein expression, TCF7L2",Q9NQB0,0.01
same,"Differential protein expression, STRN4",Q9NRL3,100
same,"Differential protein expression, RAD18",Q9NS91,100
same,"Differential protein expression, DIAPH3",Q9NSV4,0.233
same,"Differential protein expression, MBNL3",Q9NUK0,2.509
same,"Differential protein expression, MRGBP",Q9NV56,100
same,"Differential protein expression, EXD2",Q9NVH0,2.016
same,"Differential protein expression, ASF1B",Q9NVP2,0.458
same,"Differential protein expression, SDHAF2",Q9NX18,0.346
same,"Differential protein expression, EHF",Q9NZC4,0.01
same,"Differential protein expression, MACROH2A2",Q9P0M6,100
same,"Differential protein expression, SENP1",Q9POU3,0.01
same,"Differential protein expression, m101L",Q9Q8J9,2.679
same,"Differential protein expression, m097R",Q9Q8K3,100
same,"Differential protein expression, m094R",Q9Q8K6,0.01
same,"Differential protein expression, m089L",Q9Q8L1,0.01
same,"Differential protein expression, m048L",Q9Q8P8,2.287
same,"Differential protein expression, m043L",Q9Q8Q3,0.01
same,"Differential protein expression, m042L",Q9Q8Q4,0.01
same,"Differential protein expression, m032R",Q9Q8R4,100
same,"Differential protein expression, DNAJB4",Q9UDY4,3.313
same,"Differential protein expression, DAXX",Q9UER7,100
same,"Differential protein expression, MLX",Q9UH92,0.453
same,"Differential protein expression, ADGRE2",Q9UHX3,0.491
same,"Differential protein expression, RASAL2",Q9UJF2,0.01
same,"Differential protein expression, LEF1",Q9UJU2,5.627
same,"Differential protein expression, ANAPC2",Q9UJX6,0.336
same,"Differential protein expression, GGA2",Q9UJY4,0.442
same,"Differential protein expression, CCNL1",Q9UK58,3.386
same,"Differential protein expression, RALY",Q9UKM9,2.03
same,"Differential protein expression, YEATS2",Q9ULM3,100
same,"Differential protein expression, NOB1",Q9ULX3,0.407
same,"Differential protein expression, FZR1",Q9UM11,4.964
same,"Differential protein expression, NOL7",Q9UMY1,0.431
same,"Differential protein expression, LIMCH1",Q9UPQ0,0.01
same,"Differential protein expression, AGAP1",Q9UPQ3,2.271
same,"Differential protein expression, DNM3",Q9UQ16,100
same,"Differential protein expression, JRKL",Q9Y4A0,0.474
same,"Differential protein expression, DCAF1",Q9Y4B6,0.482
same,"Differential protein expression, UTP18",Q9Y5J1,0.493
same,"Differential protein expression, ST14",Q9Y5Y6,2.934
same,"Differential protein expression, RBMX2",Q9Y388,100
same,"Differential protein expression, PSAT1",Q9Y617,0.469
same,"Differential protein expression, SLC12A7",Q9Y666,0.497
same,"Differential protein expression, mt6",Q9YQ03,0.01
same,"Differential protein expression, GLE1",Q53GS7,0.329
same,"Differential protein expression, INO80D",Q53TQ3,100
same,"Differential protein expression, NAIF1",Q69Y17,0.374
same,"Differential protein expression, H3C13; H3C14; H3C15",Q71DI3,3.19
same,"Differential protein expression, TADA2B",Q86TJ2,0.246
same,"Differential protein expression, RPS19BP1",Q86WX3,0.426
same,"Differential protein expression, KRT73",Q86Y46,4.935
same,"Differential protein expression, PBXIP1",Q96AQ6,2.168
same,"Differential protein expression, INTS12",Q96CB8,100
same,"Differential protein expression, LRRC58",Q96CX6,3.753
same,"Differential protein expression, RBMXL1",Q96E39,100
same,"Differential protein expression, MCRS1",Q96EZ8,0.01
same,"Differential protein expression, PERP",Q96FX8,2.002
same,"Differential protein expression, LTV1",Q96GA3,0.288
same,"Differential protein expression, SMARCD1",Q96GM5,0.376
same,"Differential protein expression, ZNF668",Q96K58,0.01
same,"Differential protein expression, RNPC3",Q96LT9,100
same,"Differential protein expression, PWWP2A",Q96N64,0.01
same,"Differential protein expression, SERPINB12",Q96P63,3.145
same,"Differential protein expression, SLC38A2",Q96QD8,0.262
same,"Differential protein expression, PHF12",Q96QT6,100
same,"Differential protein expression, SMC6",Q96SB8,0.01
same,"Differential protein expression, CDK3",Q00526,0.01
same,"Differential protein expression, ARL11",Q969Q4,2.014
same,"Differential protein expression, U2AF1",Q01081,2.205
same,"Differential protein expression, KRT76",Q01546,2.236
same,"Differential protein expression, SP2",Q02086,0.01
same,"Differential protein expression, PCDH1",Q08174,3.649
same,"Differential protein expression, DSC1",Q08554,2.044
same,"Differential protein expression, CDH17",Q12864,5.81
same,"Differential protein expression, PRDM2",Q13029,0.499
same,"Differential protein expression, KRR1",Q13601,2.698
same,"Differential protein expression, AAMP",Q13685,0.385
same,"Differential protein expression, RUNX2",Q13950,0.192
same,"Differential protein expression, CDK13",Q14004,2.192
same,"Differential protein expression, TFDP2",Q14188,0.48
